Where two headings read alike, the source gives them in different places.
Columns and labels:
[1] = test system: CD8-MerTK in Ba/F3-CDM cells; experiment: In cell MER kinase assay, Ba/F3-CDM cell proliferation without IL-3 (Celltiter-Glo); assay type: cell-based, murine; conditions: 48 hours compound treatment, read-out: Cell growth inhibition (GI50)
Method: To establish an in cell kinase assay for MerTK kinase, the IL-3 dependent Ba/F3 cells of murine lymphoid origin was transfected with CD8-MerTK. […] For a routine cellular assay, Ba/F3-CDM cells were seeded at 2,000 cells per well in 384-well cell culture plate containing DMEM/10% FBS culture media and incubated for 24 hours before addition of compounds pre-diluted in culture media. Following compound treatment, cells were further incubated for 48 hours and the proliferation was measured. To discriminate a Ba/F3 growth inhibition by a specific inhibition of MerTK kinase following compound treatment vs growth inhibition due to a non-specific unintended cytotoxicity of compounds, we routinely carried out control sets of Ba/F3 cells in parallel that grown in IL3-supplemented growth media. In the presence of IL-3, the proliferation of Ba/F3 is no longer dependent on the MerTK activity. Cell growth and proliferation was measured with Celltiter-Glo™ system (Promega, USA) according to the manufacturer's instruction. The half-maximal growth inhibitory concentration (GI50) value was calculated with Prism6.0 software (GraphPad, USA).

[2] = molecular target: human c-MER catalytic domain (Homo sapiens (Human), UniProt Q12866); experiment: LanthaScreen TR-FRET kinase assay, c-MER
Sequence of human c-MER catalytic domain (Q12866 587-858): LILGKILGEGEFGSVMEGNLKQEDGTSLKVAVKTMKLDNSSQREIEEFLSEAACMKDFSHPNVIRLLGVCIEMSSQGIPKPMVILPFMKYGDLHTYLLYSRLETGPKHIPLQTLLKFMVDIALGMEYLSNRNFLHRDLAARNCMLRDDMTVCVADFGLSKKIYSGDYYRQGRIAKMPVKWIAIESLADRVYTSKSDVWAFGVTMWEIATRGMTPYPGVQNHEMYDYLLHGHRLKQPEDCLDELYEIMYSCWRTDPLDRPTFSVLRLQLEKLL

[3] = read-out: Mer TK inhibition (IC50), Biochemical IC50, TR-FRET, 10 uM ATP

| SMILES | GI50 [1] [nM] | IC50 [2] [nM] | IC50 [2, 3] [nM] |
| --- | --- | --- | --- |
| CCc1cc(CO[C@H]2CNC[C@@H]2NC(=O)c2cc(-c3cnn(C)c3)cnc2N)ccc1C [Example 388, 2-amino-N-((3S,4S)-4-((3-ethyl-4-methylbenzyl)oxy)pyrrolidin-3-yl)-5-(1-methyl-1H-pyrazol-4-yl)nicotinamide] | 100 to 500 | < 10 |  |
| CN1CCN(Cc2ccc(-c3ccc(CO[C@H]4CCC[C@@H]4NC(=O)c4cc(-c5cnn(C)c5)cnc4N)c(F)c3)cc2)CC1 [Example 156, 2-amino-N-((1S,2S)-2-((3-fluoro-4′-((4-methylpiperazin-1-yl)-methyl)-[1,1′-biphenyl]-4-yl)methoxy)cyclopentyl)-5-(1-methyl-1H-pyrazol-4-yl)-nicotinamide] | < 100 |  | < 10 |
| CN1CCN(c2ccc(-c3ccc(CO[C@H]4CCC[C@@H]4NC(=O)c4cc(-c5cnn(C)c5)cnc4N)cc3)cn2)CC1 [Example 148, 2-amino-5-(1-methyl-1H-pyrazol-4-yl)-N-((1S,2S)-2-((4-(6-(4-methylpiperazin-1-yl)pyridin-3-yl)benzyl)oxy)cyclopentyl)nicotinamide] | > 1000 |  | < 10 |
| CCc1cc(CO[C@H]2CNC[C@@H]2NC(=O)c2cc(-c3cnn(C4CCN(C)CC4)c3)cnc2N)ccc1C [Example 413, 2-amino-N-((3S,4S)-4-((3-ethyl-4-methylbenzyl)oxy)pyrrolidin-3-yl)-5-(1-(1-methylpiperidin-4-yl)-1H-pyrazol-4-yl)nicotinamide] | 500 to 1000 |  | < 10 |
| CC(c1ccc(-c2ccc(CO[C@H]3CCC[C@@H]3NC(=O)c3cc(-c4ccc(F)nc4)cnc3N)cc2)cc1)N1CCN(C)CC1 (stereo in doubt) [Example 223, 6-amino-6′-fluoro-N-((1S,2S)-2-((4′-((R)-1-(4-methylpiperazin-1-yl)ethyl)-[1,1′-biphenyl]-4-yl)methoxy)cyclopentyl)-[3,3′-bipyridine]-5-carboxamide] | 100 to 500 |  | < 10 |
| CCc1cc(CO[C@H]2CNC[C@@H]2NC(=O)c2cc(-c3cnn(C4CCNCC4)c3)cnc2N)ccc1C [Example 412, 2-amino-N-((3S,4S)-4-((3-ethyl-4-methylbenzyl)oxy)pyrrolidin-3-yl)-5-(1-(piperidin-4-yl)-1H-pyrazol-4-yl)nicotinamide] | > 1000 |  | < 10 |
| Cn1cc(-c2cnc(N)c(C(=O)N[C@H]3CNC[C@@H]3OCc3ccc(-c4ccc(C(C)(C)N5CCN(CCO)CC5)cc4)cc3)c2)cn1 [Example 440, 2-amino-N-((3S,4S)-4-((4′-(2-(4-(2-hydroxyethyl)piperazin-1-yl)propan-2-yl)-[1,1′-biphenyl]-4-yl)methoxy)pyrrolidin-3-yl)-5-(1-methyl-1H-pyrazol-4-yl)nicotinamide] | > 1000 |  | < 10 |
| CN1CCN(Cc2ccc(-c3ccc(CO[C@H]4CCC[C@@H]4NC(=O)c4cc(-c5cnn(C)c5)cnc4N)cc3)cn2)CC1 [Example 203, 2-amino-5-(1-methyl-1H-pyrazol-4-yl)-N-((1S,2S)-2-((4-(6-((4-methylpiperazin-1-yl)methyl)pyridin-3-yl)benzyl)oxy)cyclopentyl)nicotinamide] | 100 to 500 |  | < 10 |
| CN1CCN(Cc2ccc(-c3ccc(CO[C@H]4CCC[C@@H]4NC(=O)c4cc(-c5cc(F)nc(F)c5)cnc4N)cc3)cc2)CC1 [Example 384] | < 100 |  | < 10 |
| CC(c1ccc(-c2ccc(CO[C@H]3CCC[C@@H]3NC(=O)c3cc(-c4ccc(F)nc4)cnc3N)cc2)cc1)N1CCN(CCO)CC1 (stereo partly drawn) [Example 237, 6-amino-6′-fluoro-N-((1S,2S)-2-((4′-(1-(4-(2-hydroxyethyl)-piperazin-1-yl)ethyl)-[1,1′-biphenyl]-4-yl)methoxy)cyclopentyl)-[3,3′-bipyridine]-5-carboxamide] | < 100 |  | < 10 |
| C[C@@H]1CN(Cc2ccc(-c3ccc(CO[C@H]4CCC[C@@H]4NC(=O)c4cc(-c5cnn(C)c5)cnc4N)cc3)cc2)C[C@H](C)N1 [Example 189, 2-amino-N-((1S,2S)-2-((4′-((cis-3,5-dimethylpiperazin-1-yl)-methyl)-[1,1′-biphenyl]-4-yl)methoxy)cyclopentyl)-5-(1-methyl-1H-pyrazol-4-yl)-nicotinamide] | 100 to 500 |  | < 10 |
| CCc1cc(CO[C@H]2CNC[C@@H]2NC(=O)c2cc(-c3ccccc3)cnc2N)ccc1C [Example 394, 2-amino-N-((3S,4S)-4-((3-ethyl-4-methylbenzyl)oxy)pyrrolidin-3-yl)-5-phenylnicotinamide] | 500 to 1000 |  | < 10 |
| CN1CCN(Cc2ccc(-c3ccc(CO[C@H]4CCC[C@@H]4NC(=O)c4cc(-c5cnn(C6CCOCC6)c5)cnc4N)cc3)cc2)CC1 [Example 380] | < 100 |  | < 10 |
| CN(C)C1CCN(Cc2ccc(-c3ccc(CO[C@H]4CCC[C@@H]4NC(=O)c4cc(-c5cnn(C)c5)cnc4N)cc3)cc2)C1 (stereo partly drawn) [Example 193, 2-amino-N-((1S,2S)-2-((4′-((3-(dimethylamino)pyrrolidin-1-yl)methyl)-[1,1′-biphenyl]-4-yl)methoxy)cyclopentyl)-5-(1-methyl-1H-pyrazol-4-yl)nicotinamide] | < 100 |  | < 10 |
| CN1CCN(Cc2ccc(-c3ccc(CO[C@H]4COC[C@@H]4NC(=O)c4cc(-c5cnn(C)c5)cnc4N)cc3)cc2C(F)(F)F)CC1 [Example 449, 2-amino-5-(1-methyl-1H-pyrazol-4-yl)-N-((3S,4R)-4-((4′-((4-methylpiperazin-1-yl)methyl)-3′-(trifluoromethyl)-[1,1′-biphenyl]-4-yl)methoxy)-tetrahydrofuran-3-yl)nicotinamide] | < 100 |  | < 10 |
| CN1CCN(Cc2ccc(-c3ccc(CO[C@H]4CCC[C@@H]4NC(=O)c4cc(-c5ccc(F)nc5)cnc4N)cc3)cc2)CC1 [Example 386, 6-amino-6′-fluoro-N-((1S,2S)-2-((4′-((4-methylpiperazin-1-yl)methyl)-[1,1′-biphenyl]-4-yl)methoxy)cyclopentyl)-[3,3′-bipyridine]-5-carboxamide] | < 100 |  | < 10 |
| CC(c1ccc(-c2ccc(CO[C@H]3CCC[C@@H]3NC(=O)c3cccnc3N)cc2)cc1)N1CCN(C)CC1 (stereo partly drawn) [Example 235, 2-amino-N-((1S,2S)-2-((4′-(1-(4-methylpiperazin-1-yl)ethyl)-[1,1′-biphenyl]-4-yl)methoxy)cyclopentyl)nicotinamide] | 500 to 1000 |  | < 10 |
| CCN1CCN(Cc2ccc(-c3ccc(CO[C@H]4CCC[C@@H]4NC(=O)c4cc(-c5cnn(C)c5)cnc4N)cc3)cc2)CC1 [Example 183, 2-amino-N-((1S,2S)-2-((4′-((4-ethylpiperazin-1-yl)methyl)-[1,1′-biphenyl]-4-yl)methoxy)cyclopentyl)-5-(1-methyl-1H-pyrazol-4-yl)nicotinamide] | < 100 |  | < 10 |
| CN1CCN(c2ccc(-c3ccc(CO[C@H]4CCC[C@@H]4NC(=O)c4cc(-c5cnn(C)c5)cnc4N)cc3)cc2)CC1 [Example 146, 2-amino-5-(1-methyl-1H-pyrazol-4-yl)-N-((1S,2S)-2-((4′-(4-methylpiperazin-1-yl)-[1,1′-biphenyl]-4-yl)methoxy)cyclopentyl)nicotinamide] | < 100 |  | < 10 |
| Cc1cnc(N)c(C(=O)N[C@H]2CCC[C@@H]2OCc2ccc(-c3ccc(CN4CCN(C)CC4)cc3)cc2)c1 [Example 374, 2-amino-5-methyl-N-((1S,2S)-2-((4′-((4-methylpiperazin-1-yl)-methyl)-[1,1′-biphenyl]-4-yl)methoxy)cyclopentyl)nicotinamide] | 100 to 500 |  | < 10 |
| CCc1cc(CO[C@H]2CNC[C@@H]2NC(=O)c2cc(-c3ccncc3)cnc2N)ccc1C [Example 395, 6-amino-N-((3S,4S)-4-((3-ethyl-4-methylbenzyl)oxy)pyrrolidin-3-yl)-[3,4′-bipyridine]-5-carboxamide] | 500 to 1000 |  | < 10 |
| COc1ccc(-c2cnc(N)c(C(=O)N[C@H]3CCC[C@@H]3OCc3ccc(-c4ccc(CN5CCN(C)CC5)cc4)cc3)c2)cc1 [Example 376] | < 100 |  | < 10 |
| Cn1cc(-c2cnc(N)c(C(=O)N[C@H]3CCC[C@@H]3OCc3ccc(-c4ccc(CN5CCN(CCO)CC5)cc4Cl)cc3)c2)cn1 [Example 206, 2-amino-N-((1S,2S)-2-((2′-chloro-4′-((4-(2-hydroxyethyl)-piperazin-1-yl)methyl)-[1,1′-biphenyl]-4-yl)methoxy)cyclopentyl)-5-(1-methyl-1H-pyrazol-4-yl)nicotinamide] | 100 to 500 |  | < 10 |
| CCc1cc(CO[C@H]2CNC[C@@H]2NC(=O)c2cc(-c3ccc(CN4CCN(C)CC4)cc3)cnc2N)ccc1C [Example 390, 2-amino-N-((3S,4S)-4-((3-ethyl-4-methylbenzyl)oxy)pyrrolidin-3-yl)-5-(4-((4-methylpiperazin-1-yl)methyl)phenyl)nicotinamide] | 100 to 500 |  | < 10 |
| CN1CCN(Cc2ccc(-c3ccc(CO[C@H]4CCC[C@@H]4NC(=O)c4cc(-c5cnn(C)c5)cnc4N)cc3)cc2O)CC1 [Example 199, 2-amino-N-((1S,2S)-2-((3′-hydroxy-4′-((4-methylpiperazin-1-yl)methyl)-[1,1′-biphenyl]-4-yl)methoxy)cyclopentyl)-5-(1-methyl-1H-pyrazol-4-yl)nicotinamide] | < 100 |  | < 10 |
